Legend:
HDAC = assay: In vivo PET imaging: blocking of whole brain uptake of the radiolabeled compound of Example 3; design: species or system rat
Method: Male Sprague-Dawley rats were utilized in pairs, anesthetized with inhalational isoflurane (Forane) at 3% in a carrier of 1.5-2 L/min medical oxygen and maintained at 2% isoflurane for the duration of the scan. The rats were arranged head-to-head in a Triumph Trimodality PET/CT/SPECT scanner (Gamma Medica, Northridge, Calif.). Rats were injected standard references or vehicle via a lateral tail vein catheterization at the start of Positron Emission Tomography (PET) acquisition. Dynamic PET acquisition lasted for 60 min and was followed by computed tomography (CT) for anatomic co-registration. PET data were reconstructed using a 3D-MLEM method resulting in a full width at half-maximum resolution of 1 mm. Reconstructed images were exported from the scanner in DICOM format along with an anatomic CT for rodent studies. These files were imported to PMOD (PMOD Technologies, Ltd.) and manually coregistered using six degrees of freedom.
Volumes of interest (VOIs) were drawn manually as spheres in brain regions guided by high resolution CT structural images and summed PET data, with a radius no less than 1 mm to minimize partial volume effects. Time-activity curves (TACs) were exported in terms of decay corrected activity per unit volume at specified time points with gradually increasing intervals. The TACs were expressed as percent injected dose per unit volume for analysis.
Summed PET images following injection with the ^11C radiolabeled (E)-3-(4-((((1r,3R,5S)-adamantan-1-ylmethyl)(methyl)amino)methyl)phenyl)-N-hydroxyacrylamide (Example 3) at baseline or after 5 minutes pretreatment with 0.5 or 2.0 mg/kg unlabeled (E)-3-(4-((((1 r,3R,5 S)-adamantan-1-ylmethyl) (methyl)amino)methyl)phenyl)-N-hydroxyacrylamide illustrate brain uptake and self-blocking, as shown in FIG. 1A. Whole-brain tracer uptake levels, normalized to uptake at 10 min, were altered by 10-40% in self-blocking experiments with 5 min pretreatment with 1.0 μg-2.0 mg/kg unlabeled (E)-3-(4-((((1r,3R,5S)-adamantan-1-ylmethyl) (methyl)amino)methyl)phenyl)-N-hydroxyacrylamide, as shown in FIGS. 1B and 1C. This quantification provides a means to measure occupancy of HDAC targets on the basis of blocked binding of the radiolabeled compound of Example 3.
Whole brain uptake of the radiotracer of Example 3 was measured 4 h after acute systemic treatment.

[1] = Intraperitoneal pharmacokinetics and brain distribution assay; format: in vivo, male Sprague Dawley rats; details: single i.p. dose 1 mg/kg
Method: Healthy male Sprague Dawley rats (8-12 weeks old) weighing between 200 to 250 g were procured from Tina Labs, Hyderabad, India. Three rats were housed in each cage. Temperature and humidity were maintained at 22±3° C. and 40-70%, respectively and illumination was controlled to give a sequence of 12 hr light and 12 hr dark cycle. Temperature and humidity were recorded by auto-controlled data logger system. All the animals were provided laboratory rodent diet (Vetcare India Pvt. Ltd, Bengaluru) ad libitum. Reverse osmosis water treated with ultraviolet light was provided ad libitum.
Twenty one male Sprague Dawley rats were intraperitoneally administered with a solution formulation of the compound of Example 2 prepared in 10% DMSO, 10% Tween 80, and 80% normal saline. The blood samples were collected from a set of three rats at each time point in labeled micro centrifuge tube containing K2EDTA solution as anticoagulant. Plasma samples were separated by centrifugation of whole blood and stored at below −70° C. until bioanalysis. After collection of blood samples at each time point animals, were humanely euthanized by CO2 and the brain was collected. Brain samples were homogenized using ice-cold phosphate buffer saline (pH=7.4) and homogenates were stored at below −70° C. until analysis. Total homogenate volume was three times the brain weight. All samples were processed for analysis by protein precipitation using acetonitrile and analyzed with fit-for-purpose LC-MS/MS method (Lower Limits of Quantitation (LLOQ)=2.01 ng/mL in plasma and 1.01 ng/mL in brain). Pharmacokinetic parameters were calculated using the non-compartmental analysis tool of Phoenix WinNonlin® (Version 6.3).
The intraperitoneal solution formulation concentration was 0.1 mg/mL. The weighed quantity (7.02 mg) of (E)-3-(4-((((3r,5r,7r)-adamantan-1-ylmethyl)(methyl)amino)methyl)phenyl)-N-(2-aminophenyl)acrylamide was added in a labeled bottle. DMSO (7.02 mL) was added to dissolve the compound, followed by addition of Tween 80 (7.02 mL) and the solution was mixed by vortexing. Next, normal saline was added (56.16 mL) and the resulting solution was mixed by vortexing. The solution formulation was sonicated for 2 minutes to obtain a clear and transparent solution.
The blood samples were collected from set of three rats at each time point in labeled micro centrifuge tube containing K2EDTA solution as anticoagulant at time points of 0.08, 0.5, 1, 2, 4, 6, 8 & 24 hours. […]
Concentrations of the compound of Example 2 in rat plasma and brain samples were analyzed with fit-for-purpose by LC-MS/MS method. […] Following centrifugation, 100 µL of clear supernatant was transferred a 96-well plate and analyzed using LC-MS/MS. […]

CN(Cc1ccc(/C=C/C(=O)Nc2ccccc2N)cc1)CC12CC3CC(CC(C3)C1)C2 [Example 2, (E)-3-(4-((((3r,5r,7r)-adamantan-1-ylmethyl)(methyl)amino)methyl)phenyl)-N-(2-aminophenyl)acrylamide]
block of whole brain tracer uptake (HDAC; 0.1 mg/kg (lowest tested dosage), 4 h after acute systemic treatment, radiotracer of Example 3, relative to vehicle-blocked baseline): 25%
HDAC occupancy in the brain (HDAC; 0.1 mg/kg i.p., based on PET imaging experiments): ~25%
tracer uptake returning to baseline by (time post treatment) (HDAC; 0.1 mg/kg, radiotracer of Example 3): ≤ 7.5 h
Kp ([1]; male, Sprague Dawley, rat, brain/plasma, ip, read-out: Brain-to-plasma exposure ratio): 20.6
Tmax ([1]; male, Sprague Dawley, rat, plasma, ip): 30 min
brain concentrations quantifiable up to ([1]; brain (2 animals), LLOQ 1.01 ng/mL): ≤ 24 h
plasma concentrations quantifiable up to ([1]; plasma (2 animals), LLOQ 2.01 ng/mL): up to 8 h

Source: US20170349540A1, “HISTONE DEACETYLASE INHIBITORS” (The General Hospital Corporation, priority 2014, published 2017)
